Paper PMC4646981, “Protein Kinase A Governs Oxidative Phosphorylation Kinetics and Oxidant Emitting Potential at Complex I” (Frontiers in Physiology, 2015)

Biological target: T1, complex I (mitochondrial electron transport system; multi-subunit)
T1 construct: gene Mtnd1; native complex I in freeze-fractured fragments of isolated skeletal muscle mitochondria
Assay: NADH oxidation (complex I activity) assay in mitochondrial fragments, dose-response
Assay type: biochemical, Mus musculus

For `CC(Sc1nc2ccccc2[nH]1)C(=O)N/N=C/c1cc(Br)ccc1O` (racemic) [KH7], the IC50 was 3.7 µM.
